Results taken from ChEMBL document CHEMBL4425195, “Isolation of three new annonaceous acetogenins from Graviola fruit (Annona muricata) and their anti-proliferation on human prostate cancer cell PC-3” (Bioorg Med Chem Lett, 2016).
Active and inactive are the calls of the source. The rule behind the calls is not given here.

Test system: PC-3
Test: Antiproliferative activity against human PC3 cells at 20 ug/ml after 24 hrs by MTT assay
Assay type: functional, cell-based

CCCCCCCCCCCC/C=C/CC[C@H](O)[C@@H]1CC[C@@H]([C@@H](O)CCC(O)CCCCC[C@H](O)CC2=C[C@H](C)OC2=O)O1 (some centres not stated)
Activity: Active

CCCCCCCCCC[C@@H](O)[C@@H](O)C[C@H](O)[C@@H]1CC[C@@H](CCCCCCCCCC[C@H](O)CC2=C[C@H](C)OC2=O)O1
Activity: Active
